How the values were obtained:
[1] = tested on: A2780; experiment: Cell-based proliferation assay for GI50 (CyQUANT), A2780; conditions: Homo sapiens; A2780, 96 h treatment; read-out: Cellular or Growth Inhibition Activity, GI50, A2780
Method: (§1) Human colon cancer cell lines (Colo205, HCT116), Ovarian cancer cell line (A2780), Hepatoma cell line (HEP3B), Prostate cancer cell line (PC3) were obtained from ATCC or ECACC. Colo205 cells were cultivated in RPMI 1640 containing 2 mM L-Glutamine, 5% FBS, 1.0 mM Na Pyruvate, 1 U/ml of penicillin and 1 μg of streptomycin. HCT116 cells were cultivated in McCoy's containing RPMI 1640 containing 2 mM L-Glutamine, 5% FBS, 1 U/ml of penicillin and 1 μg of streptomycin. A2780 cells were cultivated in RPMI 1640 containing 2 mM L-Glutamine, 5% FBS, 1 U/ml of penicillin and 1 μg of streptomycin. HEP3B cells were cultivated in EMEM containing 2 mM L-glutamine, 5% FBS, 1% non essential amino acid, 1 mM Na Pyruvate, 1 U/ml of penicillin and 1 μg of streptomycin. PC3 cells were cultivated in F12K, 2 mM L-glutamine, 5% FBS, 1 U/ml of penicillin and 1 μg of streptomycin. PC3, Colo205, and HCT116 cells were seeded in 96-wells plate at 1000, 5000 and 6000 cells per well respectively. A2780 and HEP3B cells were seeded in 96-wells plate at 4000 cells per well respectively. The plates were incubated at 37° C., 5% CO2, for 24 h. Cells were treated with compounds at various concentrations for 96 h. Cell growth was then monitored using CyQUANT® cell proliferation assay (Invitrogen Pte Ltd). Dose response curves were plotted to determine GI50 values for the compounds using XL-fit (ID Business Solution, Emeryville, Calif.). GI50 is defined as the concentration of compound required for 50% inhibition of cell growth.

[2] = tested on: HEP3B; experiment: Cell-based proliferation assay for GI50 (CyQUANT), HEP3B; conditions: Homo sapiens, 96 h treatment, read-out: Cellular or Growth Inhibition Activity, GI50, HEP3B
Method: as §1

[3] = target: T1, HDAC1 enzyme (Homo sapiens, UniProt Q13547); experiment: In vitro HDAC assay for determination of IC50 values (BIOMOL fluorescent-based HDAC activity assay); assay type: biochemical
T1 construct: Amplification of human HDAC1 coding region from this cDNA library was cloned separately into the baculovirus expression pDEST20 vector; made in house; host or cells: SF9 insect cells, pDEST20-HDAC1 baculovirus
T1 sequence (Q13547 whole entry): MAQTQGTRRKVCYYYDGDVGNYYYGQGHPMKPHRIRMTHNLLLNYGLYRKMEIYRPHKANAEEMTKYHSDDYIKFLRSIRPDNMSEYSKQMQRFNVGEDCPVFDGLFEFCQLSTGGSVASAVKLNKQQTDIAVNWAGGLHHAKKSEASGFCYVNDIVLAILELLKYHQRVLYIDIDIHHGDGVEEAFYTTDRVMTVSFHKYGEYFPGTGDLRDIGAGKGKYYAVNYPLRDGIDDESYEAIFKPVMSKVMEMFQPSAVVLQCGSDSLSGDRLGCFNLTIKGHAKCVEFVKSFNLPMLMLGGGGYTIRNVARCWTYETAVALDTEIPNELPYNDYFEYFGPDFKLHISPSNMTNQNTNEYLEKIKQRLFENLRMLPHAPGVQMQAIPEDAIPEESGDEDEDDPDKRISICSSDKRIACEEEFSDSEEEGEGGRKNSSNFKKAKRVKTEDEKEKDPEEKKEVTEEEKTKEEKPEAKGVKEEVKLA
In short: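 Recombinant GST-HDAC1, cloned from SW620 cDNA and expressed in Sf9 cells, tested in a fluorogenic Fluor de Lys deacetylase assay. Developer was added for 10 min and fluorescence read at 360/460 nm. IC50 came from concentration series.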

[4] = tested on: Colo205 cells; experiment: Cell-based proliferation assay for GI50 (CyQUANT), Colo205; conditions: Homo sapiens, COLO 205, 96 h treatment, read-out: Cellular or Growth Inhibition Activity in Colo205 cells, GI50
In short: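 Cells were seeded at 1000 (PC3), 5000 (Colo205), 6000 (HCT116) or 4000 (HEP3B) per well and left 24 h at 37° C. Compound treatment lasted 96 h. Growth was read by CyQUANT, and GI50 (50% growth inhibition) came from dose-response curves.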

[5] = tested on: PC3; experiment: Cell-based proliferation assay for GI50 (CyQUANT), PC3; conditions: Homo sapiens, PC-3; PC3, 96 h treatment; read-out: Cellular or Growth Inhibition Activity, GI50, PC3
Method: as §1

[6] = In vivo pharmacokinetic (PK) studies; conditions: mouse, plasma, po; mice, hydrochloric acid salt form (2HCl), 50 mg/kg
Method: Compound was dissolved in appropriate solution (saline or DMA and Cremaphor in saline) at 1 mg/ml for intravenous (IV) administration, or in 0.5% methyl cellulose, 0.1% Tween 80 in water at 5 mg/ml for oral administration. Mice were randomized according to body weight, grouped three per time point. Mice were administered single IV dose (10 mg/kg) via tail vein, or single oral dose (50 mg/kg) via gavage. At pre-defined time points (predose, 5 or 10, 30 min, 1, 2, 4, 8, and 24 h), one group of mice was sacrificed by overdose CO2 and blood samples were collected by cardiac puncture. The blood samples were centrifuged immediately for 10 min at 3000 rpm to separate plasma, and plasma was kept frozen at −80° C. until analysis by LC/MS/MS. Before sample analysis, the method was developed for LC/MS/MS assay. The method was validated for signal-response of the calibration standards, auto-sampler stability for ˜15 hours intra-day and inter-day calibration curve using eight calibration standards excluding the blank plasma. QC samples at three different concentrations in triplicates were prepared to determine the accuracy and precision. The extracted QC samples were compared to unextracted samples to determine the extraction efficiency of the analyte. LLOQ was determined by using triplicate samples of 1 ng/mL and 2 ng/mL to obtain accuracy and precision at the low end. Samples were analysed using the validated method. Data was analyzed by the non-compartmental model using WinNolin 4.0 software (Pharsight, Mountain View, Calif., USA). The mean values for the plasma compound concentration-time profiles were used in mouse PK study.
The PK parameter AUC0-last providing the information on the overall exposure of the drug in vivo is one of the key PK/PD parameters that helps in predicting the efficacy of an anti-cancer compound. The higher the AUC value, the better will be the in vivo efficacy of the compound at similar in vitro potency.

[7] = Measurement of microsomal stability; assay type: in vitro ADME; conditions: pooled human liver microsomes, pH 7.4; human liver microsome, 5 μM test compound, 1.0 mg/ml microsomal protein
Method: Metabolic stability measurements in the in vitro using liver microsomes aids in the prediction of the in vivo hepatic clearance and the compound stability towards phase I biotransformation reactions mediated by P450 isozymes.
Pooled human liver microsome (HLM was purchased from BD Gentest (BD BioSciences). The incubations consisted of test compound (5 μM) or control compound (Verapamil), NADPH-generating system solution A (25 mM NADP^+, 66 mM glucose-6-phosphate, 66 mM MgCl2 in H2O), NADPH-generating system solution B (40 U/ml glucose-6-phosphate dehydrogenase in 5 mM sodium citrate) and 1.0 mg/ml microsomal protein, respectively, in 100 mM potassium phosphate buffer (pH 7.4). Samples were incubated for 0, 5, 15, 30, 45, 60 min. Reaction was terminated with ice-cold 80% acetonitrile and 20% DMSO. Samples were subsequently centrifuged at 4° C. for 15 min at 2,000 rpm. 100 μL of the supernatant was transferred to the LC-MS Plate for analysis. Before quantitative analysis, the compound was tuned in LC/MS machine to get the optimized MS condition. Liquid chromatography was performed on a Luna C18 column (Phenomenex U.S.A, Torrance, Calif.) (2×50 mm, 5 μM). % of the compound remaining (by area) at each time point is calculated with respect to time 0 min. Plot % remaining against time (min) to obtain the curve and use the Prism software to obtain the t1/2.

[8] = tested on: HCT116; experiment: Cell-based proliferation assay for GI50 (CyQUANT), HCT116; conditions: Homo sapiens, HCT-116; HCT116, 96 h treatment; read-out: Cellular or Growth Inhibition Activity, GI50, HCT116
Method: as §1

| GI50 [1] | GI50 [2] | IC50 [3] | GI50 [4] | GI50 [5] | AUC(0-t) [6] | half-life at 5 μM [7] | GI50 [8] | Compound |
| --- | --- | --- | --- | --- | --- | --- | --- | --- |
| < 500 nM | 500 to 1000 nM | 42 nM | 500 nM | < 500 nM | 1870 ng·h/mL | > 30 min | 500 to 1000 nM | CN(C)CC(C)(C)Cn1c(CC(C)(C)C)nc2cc(/C=C/C(=O)NO)ccc21 [Compound 1, 3-[1-(3-Dimethylamino-2,2-dimethyl-propyl)-2-(2,2-dimethyl-propyl)-1H-benzoimidazol-5-yl]-N-hydroxy-acrylamide] |
| 500 to 1000 nM | 1000 to 5000 nM | 52 nM | 560 nM | < 500 nM | 1840 ng·h/mL | > 30 min | 500 to 1000 nM | CCCCc1nc2cc(/C=C/C(=O)NO)ccc2n1CCN(CC)CC [Compound 8, 3-[2-Butyl-1-(2-diethylamino-ethyl)-1H-benzoimidazol-5-yl]-N-hydroxy-acrylamide] |
| < 500 nM | 500 to 1000 nM | 49 nM | 480 nM | < 500 nM | – | > 30 min | < 500 nM | CCCCc1nc2cc(/C=C/C(=O)NO)ccc2n1CCNC(C)C [Compound 46, 3-[2-Butyl-1-(2-isopropylamino-ethyl)-1H-benzoimidazol-5-yl]-N-hydroxy-acrylamide] |
| < 500 nM | < 500 nM | 30 nM | 380 nM | < 500 nM | – | > 30 min | < 500 nM | CCCCCCc1nc2cc(/C=C/C(=O)NO)ccc2n1CCN(C)C [Compound 58, 3-[1-(2-Dimethylamino-ethyl)-2-hexyl-1H-benzoimidazol-5-yl]-N-hydroxy-acrylamide] |

Reference: patent publication US8143282B2, “Heterocyclic compounds” (S*BIO Pte Ltd., priority 2005, dated 2012)
